Several values for one entry are separate records, joined by “and”; a condition that tells them apart may be missing. Equal entries are not always repeated. Entries after “also recorded” stand apart in the source; their conditions may differ. Where two headings read alike, the source gives them in different places.
Experiments:
BuChE = conditions: 1 or 5 µM compound (printed '1 or 5 M'), vs DMSO
[1] = system: mice treated with scopolamine; experiment: Passive avoidance (PA) task, scopolamine-induced amnesia; type: in vivo; conditions: 10 mg/kg i.p., vs scopolamine-treated group
Protocol: Animals and housing conditions
In all pharmacodynamic in vivo experiments, except for the Barnes maze (BM) task, adult male Albino Swiss (CD-1) mice weighing between 18 and 22 g and purchased from the Animal Breeding Farm of the Faculty of Pharmacy, Jagiellonian University Medical College were used. In BM task, C57BL/6J mice of the same weight (Animalab, Poland) were used.
Animals were housed in cages (10 mice per cage) at a constant temperature of 22 ± 2 °C, humidity of 55 ± 10%, and a light/dark (12:12) cycle (lights on at 7 AM). Before the experiments, the animals had unlimited access to food and water. Specified conditions for the maintenance of mice were ensured throughout the experiments, including tree bedding (Transwior, Poland) and cage enrichment (tunnels, nesting material, wooden igloos, etc.). […]
doses for behavioral assays. Lower doses were also assessed if at least one of them was […]
On the first day, during the acquisition trial (a conditioning phase), the test compound 6, scopolamine, and vehicle were injected. […] The latency between opening the guillotine gate and the mouse entering the black compartment was measured for each mouse. On the next day, during the retention (drug-off) trial, the mice were placed again into the white compartment for a 30-s habituation period, and the latency to enter the black compartment was measured for each mouse. […]

[2] = target: T1, human norepinephrine transporter (Homo sapiens, UniProt P23975); experiment: Norepinephrine Transporter Competition Binding Assay; conditions: NET Ki
T1 construct: expressed in transfected cells
T1 sequence (P23975 whole entry): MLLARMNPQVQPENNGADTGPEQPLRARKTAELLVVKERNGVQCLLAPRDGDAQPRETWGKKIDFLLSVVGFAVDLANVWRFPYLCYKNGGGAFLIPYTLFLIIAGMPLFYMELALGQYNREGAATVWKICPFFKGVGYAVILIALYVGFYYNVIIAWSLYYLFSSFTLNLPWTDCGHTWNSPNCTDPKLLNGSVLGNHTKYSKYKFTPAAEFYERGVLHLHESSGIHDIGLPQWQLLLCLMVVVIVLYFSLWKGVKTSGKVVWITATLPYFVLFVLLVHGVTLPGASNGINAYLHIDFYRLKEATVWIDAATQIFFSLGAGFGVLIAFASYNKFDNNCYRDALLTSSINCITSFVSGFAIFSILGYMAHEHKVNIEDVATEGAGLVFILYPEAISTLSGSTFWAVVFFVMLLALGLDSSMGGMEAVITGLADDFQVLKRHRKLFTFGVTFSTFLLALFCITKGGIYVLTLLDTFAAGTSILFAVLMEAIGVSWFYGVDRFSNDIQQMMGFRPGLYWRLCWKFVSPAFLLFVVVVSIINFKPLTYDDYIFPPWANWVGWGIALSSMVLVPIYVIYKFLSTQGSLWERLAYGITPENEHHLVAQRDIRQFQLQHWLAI
Protocol: Norepinephrine Transporter Competition Binding Assay
Preparation of solutions of test and reference compounds
First, 10 mM stock solutions of tested compounds were prepared in DMSO. Serial dilutions of compounds were prepared in a 96-well microplate in an assay buffer using the automated pipetting system epMotion 5070. Each compound was tested in 8 concentrations ranging from 10^-3 to 10^-10 M (final concentration).
Radioligand binding was performed using membranes from the MDCK cell line stably transfected with the human norepinephrine transporter. All assays were carried out in duplicates. Volumes of 50 µl working solution of the tested compounds, 50 µl [ 3H]- Nisoxetine (spec. act. 80.2 Ci/mmol, final concentration 4 nM), and 150 µl diluted membranes (5 µg protein per well) prepared in assay buffer (50 mM Tris -HCl, pH 7.4; 120 mM NaCl; 5 mM KCl) were transferred to polypropylene 96-well microplate using 96-wells pipetting station Rainin Liquidator. Desipramine (10 μM) was used to define nonspecific binding. The microplate was covered with sealing tape, mixed, and incubated for 60 minutes at 4 °C. The reaction was terminated by rapid filtration through GF/B filter mate presoaked with 0.5% polyethyleneimine for 30 minutes. Five rapid washes with 300 µl 50 mM Tris buffer (4 °C, pH 7.4) were performed using a 96 -well FilterMate harvester. The filter mates were dried at 37 °C in the forced air fan incubator, and then, solid scintillator MeltiLex B/HS was melted on filter mates at 90 °C for 4 minutes. Radioactivity was counted in the MicroBeta2 scintillation counter (PerkinElmer). Data were fitted to a one -site curve-fitting equation with Prism 8.0 (GraphPad Software), and Ki values were estimated from the […]
Result of Norepinephrine Transporter Competition Binding Assay
Table S9. Results of binding to norepinephrine transporter (NET) of tested compounds COMPOUND Ki [nM] pKi Ki [nM] pKi Ki [nM] pKi

SIM-A9 cells = experiment: Intracellular O2•-, DHE probe, SIM-A9; type: cell-based, mouse
[3] = target: T2, human serotonin 5-HT6 receptor (Homo sapiens, UniProt P50406); experiment: cAMP 5-HT6 functional assay; type: cell-based
T2 construct: host or cells: 1321N1
T2 sequence (P50406 whole entry): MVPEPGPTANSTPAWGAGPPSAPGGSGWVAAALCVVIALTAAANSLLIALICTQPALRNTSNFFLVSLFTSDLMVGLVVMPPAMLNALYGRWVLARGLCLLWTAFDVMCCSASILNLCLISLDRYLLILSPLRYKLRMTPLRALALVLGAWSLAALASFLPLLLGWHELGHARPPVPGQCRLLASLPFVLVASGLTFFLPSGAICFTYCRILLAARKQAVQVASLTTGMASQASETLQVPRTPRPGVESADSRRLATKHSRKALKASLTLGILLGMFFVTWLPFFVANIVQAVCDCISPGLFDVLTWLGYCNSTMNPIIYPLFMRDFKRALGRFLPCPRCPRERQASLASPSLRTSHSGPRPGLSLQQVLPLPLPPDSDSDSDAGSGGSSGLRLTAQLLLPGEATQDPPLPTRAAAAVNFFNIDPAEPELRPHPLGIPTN
Protocol: Functional assays for 5-HT6 receptor
Test compounds were dissolved in dimethyl sulfoxide (DMSO) at a concentration of 10 mM.
Serial dilutions were prepared in a 96-well microplate in assay buffer, and 8 concentrations
were tested. For the 5-HT6, adenylyl cyclase activity was monitored using cryopreserved
cells were resuspended in stimulation buffer (HBSS, 5 mM HEPES, 0.5 IBMX, and 0.1%
BSA at pH 7.4) at 2x10^5 cells/ml. The same volume (10 μl) of cell suspension was added to
the tested compounds. Samples were loaded onto a white opaque half-area 96-well
reference agonist for the 5-HT6 receptor. The agonist and antagonist were added
simultaneously. Cell stimulation was performed for 30 minutes at room temperature. After
incubation, cAMP measurements were performed with homogeneous TR-FRET immunoassay
using the LANCE Ultra cAMP kit (PerkinElmer, USA). The volume of 10 μl of EucAMP
Tracer Working Solution and 10 μl of ULight-anti-cAMP Tracer Working Solution were
added, mixed, and incubated for 1 h. The TR-FRET signal was read on an EnVision
microplate reader (PerkinElmer, USA). IC 50 and EC 50 were determined by nonlinear
regression analysis using GraphPad Prism 9.0 software.

[4] = Pharmacokinetic study after i.p. administration; type: in vivo; conditions: mice, 10 mg/kg i.p.
Protocol: Pharmacokinetic study after i.p. and i.g administration
mg/kg), blood samples were collected from mice under deep terminal anesthesia directly by cardiac puncture into heparinized 1.5 mL tubes at selected time intervals.
The samples were centrifuged at 3,000 × g for 10 min (10 °C), and the plasma samples were stored at -80 °C until the HPLC analysis.
The blood in brain vessels would interfere with the assay of actual brain tissue concentrations.
Therefore, the animals were perfused transcardially with saline solution (0.9% NaCl) for 5 min (10 mL/min). After perfusion, the skull was opened, and the brain was carefully removed and immediately stored at -80 °C until the HPLC analysis.
UHPLC-MS method for pharmacokinetics study
Ultra high-performance liquid chromatography system consisting of Ultimate 3000 RS pump Dionex (Thermo Scientific, San Jose, CA, USA) coupled with high-resolution mass spectrometer with orbitrap analyzer (Q Exactive Focus, Thermo Scientific, San Jose, CA, USA) was used in quantitative analyses of 6 in plasma and brain homogenate. According to the EMA[43] and FDA[42] guidelines on Bioanalytical method validation, the method was fully validated for plasma and partially for brain homogenate.
Before analysis, 50 μL of plasma or brain homogenate was precipitated with an internal
standard of 200 μL acetonitrile (ACN). The mixture was vortexed for 1 min at 1,500 rpm and
centrifuged at 12,074 g for 5 min at 20 °C. The supernatant was then transferred to an
injection vial and analyzed.
mm ID (Phenomenex, Torrance, CA, USA), protected with a guard column SecurityGuard
was performed in gradient elution mode with a flow rate of 0.6 mL/min and the following
composition of mobile phase: A) 0.1% FA in water (v/v) and B) 0.1% FA in ACN/MeOH in
The column was kept at 45 °C during
analysis. Samples were held at 10 °C in a light-tight autosampler unit.
Heated-Electrospray Ionization II interface (HESI-II) in positive ion mode was used with the
following settings: spray voltage; +3.5 kV, S-lens RF level; +70 V, capillary temperature 350
°C, auxiliary gas heater temperature; 350 °C, sheet, and auxiliary gas flow; 45 and 15
arbitrary units, respectively. Full MS mode was used at resolution (m/𝛥m) ̴70,000 for
Xcalibur software (v 4.0) was used for data evaluation.

O[C@H](CNCC1CC1)[C@H](Cc1ccccc1)NC1c2ccccc2-c2ccccc21 [Compound 6]
Melting temperature (Tm) of BuChE (BuChE): increased Tm of BuChE | step-through latency in the retention trial [1]: significant differences were observed in the retention trial; also recorded: prolonged step‐thorough latency | Ki [2]: 837 nM | Ki ([2]; third Ki column (likely the mean)): 774 nM | Ki ([2]; [3H]-Nisoxetine): 714 nM | increase in intracellular O2•- (SIM-A9 cells; all concentrations and times): no significant increase | decrease of O2•- level (SIM-A9 cells; conc. = IC50, 24 h): 26% | EC50 [3]: 2420 nM | Emax ([3]; read-out: 5-HT6 agonist mode E max % [10^-5 M]): 41% | Emax ([3]; read-out: 5-HT6 antagonist mode E max %): 3% | Tmax ([4]; ICR-CD1, mouse, brain, ip, 10 mg/kg, read-out: brain Tmax (converted)): 55 min | Kp ([4]; ICR-CD1, mouse, brain/plasma, ip, 10 mg/kg, read-out: Kp (AUCbrain/AUCplasma), brain-to-plasma ratio): 11.1 | MRT ([4]; ICR-CD1, mouse, ip, plasma): 3.62 h | k el ([4]; ICR-CD1, mouse, ip, plasma, read-out: λz (converted)): 7.5e-05 s⁻¹ | Cmax ([4]; ICR-CD1, mouse, plasma, ip, 10 mg/kg): 430 ± 57.9 ng/mL | half-life ([4]; ICR-CD1, mouse, plasma, ip, 10 mg/kg, plasma, read-out: Half-life): 161 ± 14.2 min | Vd/F ([4]; ICR-CD1, mouse, plasma, ip, 10 mg/kg, plasma, read-out: Vss/F): 38.2 ± 4.47 L/kg | Vd/F ([4]; ICR-CD1, mouse, plasma, ip, 10 mg/kg, plasma, read-out: Vz/F): 40.9 ± 4.95 L/kg | Tmax ([4]; ICR-CD1, mouse, plasma, ip, 10 mg/kg, read-out: plasma Tmax (converted)): 23.3 min | brain AUCtotal [4]: 650,923.00 ± 152,288.00 min.ng/g | plasma AUCtotal [4]: 58,804.62 ± 3,318.21 min.ng/mL | CL ([4]; plasma): 0.17 ± 0.01 L/min/kg | Vz/F ([4]; plasma, 10 mg/kg): ~ 41 L/kg | half-life ([4]; plasma, 10 mg/kg): ~ 161 min | Kp (AUCbrain/AUCplasma), brain-to-plasma ratio ([4]; 10 mg/kg): 11 | brain Cmax ([4]; 10 mg/kg): 833.00 ± 62.32 ng/g and 833 ng/g | plasma Cmax ([4]; 10 mg/kg): 430 ng/mL
